Tests used:
[1] = test system: TNF-α production in THP-1 (human monocyte cell line); test: Inhibitory activity against TNF-α production using human cell lines (LPS-stimulated THP-1); type: cell-based; details: 1.5 h, THP-1 cells stimulated by LPS, cultured for 90 minutes, TNF-α by ELISA
Experimental: (2) Inhibitory Activity Against TNF-α Production Using Human Cell Lines
Using THP-1 which is a human monocyte cell line, the inhibitory effect of the compound of the present invention against TNF-α production stimulated by lipopolysaccharide (LPS) was studied.
Each 50 μL of lipopolysaccharide (LPS; Difco #3120-25-0) prepared to a concentration of 40 ng/mL using RPMI-1640 medium containing 10% fetal calf serum (hereinafter abbreviated as RPMI-1640) and RPMI-1640 containing the compound of the present invention was added to a 96-well plate for cell culture. One hundred μL of the cell suspension of THP-1 (Dainippon Pharmaceutical Co., Ltd, #06-202) prepared to a cell density of 2×10^6 cells/mL using RPMI-1640 was added and cultured for 90 minutes at 37° C. in an incubator (5% CO2, 95% air). After completion of the reaction, the culture medium supernatant was recovered and the amount of produced TNF-α was measured using an ELISA kit (Invitrogen, #850090192).
The inhibitory activity against TNF-α production, which is the effect of the compound of the present invention, was calculated as an inhibition rate (%) by the following equation: Inhibition rate (%)={(AC minus AX)/(AC minus AB)}×100 wherein AB is a measured value without LPS induction; AC is a measured value with LPS induction in the absence of a test compound; and AX is a measured value with LPS induction in the presence of a test compound. Inhibition rate of compounds with each concentration was calculated, and a value indicating 50% inhibition (IC50) was determined from the inhibition curve.

[2] = biological target: recombinant human p38 αMAP kinase (Homo sapiens, UniProt Q16539); test: Study on p38 αMAP kinase inhibitory activity (ATF-2 phosphorylation, Alpha Screen); type: biochemical; details: phosphorylation of biotinylated ATF2 by recombinant human p38 αMAP kinase, 30° C. for 30 minutes
Sequence of recombinant human p38 αMAP kinase (Q16539 whole entry): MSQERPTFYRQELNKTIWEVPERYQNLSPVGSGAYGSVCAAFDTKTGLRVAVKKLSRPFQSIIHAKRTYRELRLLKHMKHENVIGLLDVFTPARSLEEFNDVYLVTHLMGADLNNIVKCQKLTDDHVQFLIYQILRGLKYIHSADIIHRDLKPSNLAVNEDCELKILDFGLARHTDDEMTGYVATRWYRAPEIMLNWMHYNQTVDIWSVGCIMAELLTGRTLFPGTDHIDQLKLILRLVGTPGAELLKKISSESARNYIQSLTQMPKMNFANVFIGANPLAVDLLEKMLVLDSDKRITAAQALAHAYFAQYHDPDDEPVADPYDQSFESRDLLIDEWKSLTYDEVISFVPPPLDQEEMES
Experimental: (1) Study on p38 αMAP Kinase Inhibitory Activity
Using activation transcription factor 2 (hereinafter abbreviated as ATF-2) which is a substrate for p38 αMAP kinase, the inhibitory action of the compounds of the present invention was investigated on the phosphorylation by a recombinant human p38 αMAP kinase.
A kinase buffer (25 mM Tris-HCl (pH 7.5), 5 mM β-glycerophosphate, 2 mM dithiothreitol, 0.1 mM Na3VO4, 10 mM MgCl2) containing a recombinant human p38 αMAP kinase was added to a 384-well plate (5 μL)(6.25 μg protein/well) for fluorescence measurement. After addition of a kinase buffer (5 μL) containing the compound of the present invention, the resulting mixture was incubated at room temperature for 20 minutes. A substrate mixture (5 μL) of biotinylated ATF2 of 5 μg/mL (Upstate Biotechnology #14-432), adenosine triphosphate (90 μmol/L)(Sigma #FL-AAS) and anti-phosphorylated ATF2 antibody (20-fold dilution)(Cell Signaling Technology #9221L) prepared separately was added thereto, and enzyme reaction was carried out at 30° C. for 30 minutes. After the reaction, Herpes buffer (5 μL) containing 0.25% BSA and 100 mM EDTA was added to stop the enzyme reaction. The amount of a complex of the phosphorylated ATF2 and anti-phosphorylated ATF2 antibody produced by the reaction was measured using an Alpha Screen™ Rabbit Detection kit (Packard #6760607).
The p38 αMAP kinase inhibitory activity, which is the effect of the compound of the present invention, was calculated as an inhibition rate (%) according to the following equation: Inhibition rate (%)={(AC minus AX)/(AC minus AB)}×100 wherein AB is a measured value without addition of the enzyme; AC is a measured value with addition of the enzyme in the absence of a test compound; and AX is a measured value with addition of the enzyme in the presence of a test compound.
Inhibition rate of compounds with each concentration was calculated, and a value indicating 50% inhibition (IC50) was determined from the inhibition curve.

[3] = test system: Human CYP3A4; test: Evaluation of human CYP3A4 induction activity (HepG2 cells, hPXR/CYP3A4 luciferase reporter); type: in vitro ADME; details: concentration of 10 μM, rifampicin (10 μmol/L) set to 100%
Experimental: (4) Evaluation of Human CYP3A4 Induction Activity
HepG2 cells were cultured in a 5% CO2 incubator at 37° C., using a medium [MEM(+)] prepared by adding 1/100-fold amount of non-essential amino acids for MEM Eagle's medium (100×, ICN, #1681049), Antibiotic-Antimycotic (100×, Gibco, #15240-096), L-glutamine 200 mM (100×, Gibco, #25030-081) and 1/10-fold amount of fetal bovine serum (Sigma, #F9423) to a minimum essential medium Eagle (Mod.) with Earle's salts without L-glutamine. The medium was exchanged once every 2 to 3 days. About one-fifth of the cells which were cultured to a confluent state were passaged once a week. HepG2 cells which were cultured to almost confluent state in a 225 cm^2 culture flask were inoculated to a 24-well plate (Iwaki, #3820-024) to a concentration of 5×10^4 cells/MEM(+) of 500 μL/well. […] Twenty μL/well of the prepared cell lysis solution was transferred to a 96-well white plate (Perkin Elmer, #23300), and using a luminometer (Berthold Japan, Microlumat LB96P), each chemical luminescence was measured for 2 to 14 seconds after addition of luciferase assay reagent II [(LARII), 100 μL/well)] and for 2 to 14 seconds after addition of Stop & Glo reagent, 100 μL/well). […]
The CYP3A4 induction activity was calculated by setting a rise in transcription activity of CYP3A4 to 100% when using rifampicin (10 μmol/L) as a positive control drug.

[4] = biological target: Human CYP2C9 (Homo sapiens, UniProt P11712); test: Evaluation of human CYP2C9 inhibitory activity; type: in vitro ADME
Sequence of Human CYP2C9 (P11712 whole entry): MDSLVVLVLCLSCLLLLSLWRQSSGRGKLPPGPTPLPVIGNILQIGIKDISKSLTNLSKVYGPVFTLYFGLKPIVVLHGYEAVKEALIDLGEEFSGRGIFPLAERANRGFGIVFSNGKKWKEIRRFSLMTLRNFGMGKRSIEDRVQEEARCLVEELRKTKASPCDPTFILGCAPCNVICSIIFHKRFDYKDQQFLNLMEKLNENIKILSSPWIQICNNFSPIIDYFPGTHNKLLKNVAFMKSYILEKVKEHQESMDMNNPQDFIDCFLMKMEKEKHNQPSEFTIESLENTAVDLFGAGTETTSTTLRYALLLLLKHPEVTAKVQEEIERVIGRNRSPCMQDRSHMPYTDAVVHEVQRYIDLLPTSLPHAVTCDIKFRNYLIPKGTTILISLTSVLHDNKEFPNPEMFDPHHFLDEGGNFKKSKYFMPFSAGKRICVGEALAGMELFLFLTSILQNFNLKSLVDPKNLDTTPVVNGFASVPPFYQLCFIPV
Experimental: (5) Evaluation of Human CYP2C9 Inhibitory Activity
The CYP2C9 inhibitory activity of the compound of the present invention was evaluated by enhancing measurement precision and improving measurement sensitivity on the basis of Sato et. al method [Pharmacokinetics, Xenobio. Metabol. and Dispos., 16(2), 115-126 (2001)].

[5] = test system: TNF-α production induced by lipopolysaccharide (LPS); test: Rat cytokine-production model (LPS-induced TNF-α production in vivo); details: dose of 10 mg/kg orally; LPS 10 μg/kg intravenously after 2.0 hours; plasma ninety minutes after LPS
Experimental: (3) Rat Cytokine-Production Model
The in vivo effect of the compound of the present invention was studied on TNF-α production induced by lipopolysaccharide (LPS) in rats.
A medium containing the compound of the present invention was orally administered to male […] (Charles River Japan, Inc.), and after 2.0 hours, lipopolysaccharide (LPS, 055:B5, Difco) was intravenously administered at the dose of 10 μg/kg (5 animals/group). Only a medium was orally administered to a control group (5 animals). Ninety minutes after the LPS treatment, heparinized blood collection was performed via the abdominal cava vein under anesthesia with ether, and blood plasma was obtained by centrifugation (12,000 rpm, 3 minutes, 4° C.). The obtained blood plasma sample was stored at −80° C. until it was used. TNF-α in the blood plasma was measured using an ELISA kit from Genzyme/Techne (#10516).
The inhibitory activity of the compound of the present invention against TNF-α production was calculated as an inhibition rate (%) according to the following equation: Inhibition rate (%)={(AC minus AX)/AC}×100 wherein AC is a measured value in case where no test compound was administered under LPS induction, and AX is a measured value in case where a test compound was administered under LPS induction.

IC50 [1]	IC50 [2]	IC50 [4]	SMILES	CYP3A4 induction activity [3]	inhibition against in vivo TNF-α production induced by LPS stimulation [5]
21 nM	2.5 nM		Cc1ccc(-n2nc(C(C)(C)C)cc2NC(=O)Nc2cc(CN3CCN(C(=O)c4ccc(CN5CCN(C)CC5)cc4)CC3)ccc2Cl)cc1 [13(2), N-[3-t-butyl-1-(4-methylphenyl)-1H-pyrazol-5-yl]-N′-{2-chloro-5-[(4-{4-[(4-methylpiperazin-1-yl)methyl]benzoyl}piperazin-1-yl)methyl]phenyl}urea]		
35 nM	5.6 nM	21000 nM	Cc1ccc(-n2nc(C(C)(C)C)cc2NC(=O)Nc2ccc(CN3CCN(C(=O)c4ccc(CN5CCN(C)CC5)cc4)CC3)cc2C)cc1 [Example 13(1), N-[3-t-butyl-1-(4-methylphenyl)-1H-pyrazol-5-yl]-N′-{2-methyl-4-[(4-{4-[(4-methylpiperazin-1-yl)methyl]benzoyl}piperazin-1-yl)methyl]phenyl}urea]	did not show CYP3A4 induction activity at all	
17 nM	3.8 nM		Cc1ccc(-n2nc(C(C)(C)C)cc2NC(=O)Nc2ccc(OC3CCN(C(=O)c4ccc(CN5CCN(C)CC5)cc4)CC3)cc2C)cc1 [Example 17, N-[3-t-butyl-1-(4-methylphenyl)-1H-pyrazol-5-yl]-N′-{2-methyl-4-[(1-{4-[(4-methylpiperazin-1-yl)methyl]benzoyl}piperidin-4-yl)oxy]phenyl}urea]		
2.3 nM	2.9 nM		Cc1ccc(-n2nc(C(C)(C)C)cc2NC(=O)Nc2ccc(CN3CCC(=O)N(c4ccccc4C)C3)cc2)cc1 [Example 4(1), N-[3-t-butyl-1-(4-methylphenyl)-1H-pyrazol-5-yl]-N′-(4-{[3-(2-methylphenyl)-4-oxotetrahydropyrimidin-1(2H)-yl]methyl}phenyl)urea]		72.8%
